Experimental data taken from US6784167B2, “17-beta-hydroxysteroid dehydrogenase-II inhibitors” (Bayer Pharmaceuticals Corporation, priority 2000, dated 2004).

## CN1C(=O)C[C@H](c2ccccc2)[C@@H]1[C@H](O)c1ccc(-c2ccc(F)cc2)s1 (relative stereo) [Example 3a, (±)-(4R*,5R*)-5-{(1S*) [5-(4-fluorophenyl)(2-thienyl)]hydroxymethyl}-1-methyl-4-phenylpyrrolidin-2-one]
  melting point: 110 °C (dec.)

## CN1C(=O)C[C@H](c2ccccc2)[C@@H]1[C@H](O)c1ccc(-c2cccnc2)s1 (relative stereo) [Example 3b, (4R,5R)-5-{(1S)-hydroxy[5-(3-pyridinyl)-2-thienyl]methyl}-1-methyl-4-phenyl-2-pyrrolidinone]
  melting point: 232 °C

## CN1C(=O)C[C@H](c2ccccc2)[C@@H]1[C@H](O)c1ccc(C(=O)Nc2ccccc2)s1 (relative stereo) [Example 4, (±)-5-[(1S*)(5-(N-phenylcarbamoyl)(2-thienyl))hydroxymethyl](4R*,5R*)-1-methyl-4-phenylpyrrolidin-2-one]
  melting point: 223 to 227 °C

## CN1C(=O)C[C@H](c2ccccc2)[C@@H]1[C@H](O)c1ccc(-c2ccc(F)c(Cl)c2)s1 (relative stereo) [Example 5, (±)-(4R*,5R*)-5-{(1S*)[5-(3-chloro-4-fluorophenyl)(2-thienyl)]hydroxymethyl}-1-methyl-4-phenylpyrrolidin-2-one]
  melting point: 194 °C

## Cc1ccc([C@@H](O)[C@H]2[C@@H](c3ccccc3)CC(=O)N2C)s1 (relative stereo) [Example 6, (±)-(4R*,5R*)-5-[(1S*)-hydroxy(5-methyl(2-thienyl))methyl]-1-methyl-4-phenylpyrrolidin-2-one]
  melting point: 185 to 188 °C

## Cc1cccc([C@@H](O)[C@H]2[C@@H](c3ccccc3)CC(=O)N2C)c1 (relative stereo) [Example 7, (±)-(4R*,5R*)-5-[(1R*)hydroxy(3-methylphenyl)methyl]-1-methyl-4-phenylpyrrolidin-2-one]
  melting point: 163 to 165 °C

## CC(=O)O[C@H](c1ccc(-c2ccc(F)cc2)s1)[C@H]1[C@@H](c2ccccc2)CC(=O)N1C (relative stereo) [Example 13, (±)-(4R*,5R*)5-{(1S*)[5-(4-fluorophenyl)(2-thienyl)]acetyloxymethyl}-1-methyl4-phenylpyrrolidin-2-one]
  melting point: 75 °C

## CN1C(=O)C[C@H](c2ccccc2)[C@@H]1[C@H](O)/C=C/c1ccc(F)cc1 (relative stereo) [Example 15, (±)-(4R*,5R*)-5-[(2E)(1R*)-3-(4-fluorophenyl)-1-hydroxyprop-2-enyl]-1-methyl-4-phenylpyrrolidin-2-one]
  melting point: 189 to 191 °C

## CN1C(=O)C[C@H](c2ccccc2)[C@@H]1[C@H](O)CCc1ccc(F)cc1 (relative stereo) [Example 16, (±)-5-[(1R*)-3-(4-fluorophenyl)-1-hydroxypropyl](4R*,5R*)-1-methyl-4-phenylpyrrolidin-2-one]
  melting point: 122 to 124 °C

## CN1C(=O)C[C@@H]2c3ccccc3[C@@](O)(c3ccc(-c4ccccc4)s3)[C@@H]21 (relative stereo) [Example 24, (±)-(8S*,3aR*,8aR*)-8-hydroxy-1-methyl-8-(5-phenyl(2-thienyl))indano[2,1-b]pyrrolidin-2-one]
  melting point: 178 to 180 °C

## Cc1ccc(-c2ccc(C(O)C3C(c4ccccc4)CC(=O)N3C)s2)nc1 (centres unmarked) [Example 27]
  melting point: 173 °C

## CN1C(=O)CC(c2ccccc2)C1C(O)c1ccc(-c2cccc(C(=O)O)c2)s1 (centres unmarked) [Example 33]
  melting point: 231 °C

## COc1ccc(-c2ccc(C(O)C3C(c4ccccc4)CC(=O)N3C)s2)cc1 (centres unmarked) [Example 39]
  melting point: 168 to 170 °C

## CN1C(=O)CC(c2ccccc2)C1C(O)c1ccc(-c2ccc3ccccc3n2)s1 (centres unmarked) [Example 40]
  melting point: 225 to 228 °C

## CN1C(=O)CC(c2ccccc2)C1C(O)c1cc2ccccc2s1 (centres unmarked) [Example 41]
  melting point: 195 °C (dec.)

## CN1C(=O)CC(c2ccccc2)C1C(O)c1cc(-c2ccccc2)cs1 (centres unmarked) [Example 42]
  melting point: 165 °C

## CN1C(=O)CC(c2ccccc2)C1C(O)c1ccc(-c2cccc3ccccc23)s1 (centres unmarked) [Example 45]
  melting point: 160 °C

## CN1C(=O)CC(c2ccccc2)C1C(O)c1ccc(-c2cccc(F)c2)s1 (centres unmarked) [Example 46]
  melting point: 180 °C

## CC(=O)Nc1cccc(-c2ccc(C(O)C3C(c4ccccc4)CC(=O)N3C)s2)c1 (centres unmarked) [Example 48]
  melting point: 97 °C

## COc1cc(-c2ccc(C(O)C3C(c4ccccc4)CC(=O)N3C)s2)cc(OC)c1OC (centres unmarked) [Example 49]
  melting point: 190 °C (dec.)

## CN1C(=O)CC(c2ccccc2)C1C(O)c1ccc(C=Cc2ccc(F)cc2)s1 (centres unmarked) [Example 56]
  melting point: 194 to 195 °C (dec.)

## CN1C(=O)CC(c2ccccc2)C1C(O)c1ccc(Cc2ccc(F)cc2)s1 (centres unmarked) [Example 59]
  melting point: 155 to 157 °C

## CN1C(=O)CC(c2ccccc2)C1C(O)c1ccc(Sc2ccc(Cl)cc2)s1 (centres unmarked) [Example 60]
  melting point: 174 to 176 °C

## CN1C(=O)CC(c2ccccc2)C1C(O)c1ccc(C(=O)c2ccccc2)s1 (centres unmarked) [Example 63]
  melting point: 202 °C (dec.)

## CN1C(=O)CC(c2ccccc2)C1C(O)c1ccc(C(=O)c2ccc(F)cc2)s1 (centres unmarked) [Example 65]
  melting point: 229 to 232 °C (dec.)

## CN1C(=O)CC(c2ccccc2)C1C(O)c1ccc(-c2c(F)cc(F)cc2F)s1 (centres unmarked) [Example 75]
  melting point: 95 °C

## CSc1nccc(-c2ccc(C(O)C3C(c4ccccc4)CC(=O)N3C)s2)n1 (centres unmarked) [Example 77]
  melting point: 195 °C

## COc1ccc(C2CC(=O)N(C)C2C(O)c2ccc(-c3ccccc3)s2)cc1 (centres unmarked) [Example 82]
  melting point: 215 °C

## CN1C(=O)CC(c2ccc(N)cc2)C1C(O)c1ccc(-c2ccc(F)cc2)s1 (centres unmarked) [Example 86]
  melting point: 209 °C

## CN1C(=O)CC(c2ccccc2)C1C(O)c1ccc(-c2ccccc2)cc1 (centres unmarked) [Example 93]
  melting point: 202 °C

## Cc1ccc(C(O)C2C(c3ccccc3)CC(=O)N2C)cc1 (centres unmarked) [Example 95]
  melting point: 129 to 131 °C

## CN1C(=O)CC(c2ccccc2)C1C(O)c1cccc(C(F)(F)F)c1 (centres unmarked) [Example 96]
  melting point: 155 to 158 °C

## COc1cccc(C(O)C2C(c3ccccc3)CC(=O)N2C)c1 (centres unmarked) [Example 97]
  melting point: 160 to 161 °C

## COc1ccc(C(O)C2C(c3ccccc3)CC(=O)N2C)cc1 (centres unmarked) [Example 100]
  melting point: 154 to 157 °C

## CN(C)c1ccc(C(O)C2C(c3ccccc3)CC(=O)N2C)cc1 (centres unmarked) [Example 101]
  melting point: 182 to 185 °C

## CC(=O)Nc1cccc(-c2cccc(C(O)C3C(c4ccccc4)CC(=O)N3C)c2)c1 (centres unmarked) [Example 102]
  melting point: 150 °C

## CN1C(=O)CC(c2ccccc2)C1C(O)c1cccc(-c2cccc(F)c2)c1 (centres unmarked) [Example 103]
  melting point: 187 °C

## CN1C(=O)CC(c2ccccc2)C1C(O)c1cccc(-c2cccc(N)c2)c1 (centres unmarked) [Example 105]
  melting point: 130 °C

## COc1cccc(-c2cccc(C(O)C3C(c4ccccc4)CC(=O)N3C)c2)c1 (centres unmarked) [Example 107]
  melting point: 183 °C

## CN1C(=O)CC(c2ccccc2)C1C(O)c1ccc2c(c1)OCO2 (centres unmarked) [Example 108]
  melting point: 211 °C

## CN1C(=O)CC(c2ccccc2)C1C(O)c1cccc(-c2ccc(O)cc2)c1 (centres unmarked) [Example 110]
  melting point: 230 °C

## CN1C(=O)CC(c2ccccc2)C1C(O)c1ccc(-c2ccc(F)cc2)cc1 (centres unmarked) [Example 111]
  melting point: 117 °C

## CN1C(=O)CC(c2ccccc2)C1C(O)c1cc2ccccc2o1 (centres unmarked) [Example 112]
  melting point: 120 to 122 °C

## COc1ccc2oc(C(O)C3C(c4ccccc4)CC(=O)N3C)cc2c1 (centres unmarked) [Example 113]
  melting point: 180 to 182 °C

## CN1C(=O)CC(c2ccccc2)C1C(O)c1ccc(-c2ccc(F)cc2)o1 (centres unmarked) [Example 114]
  melting point: 168 °C

## CN1C(=O)CC(c2ccccc2)C1C(O)c1ccc(-c2cccc(N)c2)o1 (centres unmarked) [Example 119]
  melting point: 98 °C

## CN1C(=O)CC(c2ccccc2)C1C(O)C#Cc1cccc(O)c1 (centres unmarked) [Example 132]
  melting point: 210 to 211 °C

## CO[C@H](c1cccc(-c2ccccc2)c1)[C@H]1[C@@H](c2ccccc2)CC(=O)N1C [Example 143]
  melting point: 136 °C

## CN1C(=O)C[C@H](c2ccccc2)[C@@H]1[C@H](F)c1ccc(-c2ccc(F)cc2)s1 [Example 144]
  melting point: 121 to 123 °C

## CN1C(=O)C[C@H](c2ccccc2F)[C@@H]1[C@H](O)c1ccc(-c2cccnc2)s1.Cl [Example 152]
  melting point: 180 to 182 °C
